Data as given in the NIST ThermoML archive (doi:10.1016/j.jct.2013.02.004).
Numbers after ± are expanded uncertainties.

Assay: activity coefficient (dimensionless); of the first substance listed, at infinite dilution; xn = mol fraction of the nth substance listed
Conditions: 101 kPa, Liquid, Chromatography, x1 = 0

| Compound | activity coefficient (328.15 K) | activity coefficient (338.15 K) | activity coefficient (348.15 K) | activity coefficient (358.15 K) | activity coefficient (368.15 K) | activity coefficient (308.15 K) | activity coefficient (318.15 K) |
| --- | --- | --- | --- | --- | --- | --- | --- |
| Cc1ccccc1C [1,2-dimethylbenzene] + CCCCCC[n+]1ccc2ccccc2c1.N#C[S-] | 2.35 ± 0.16 | 2.37 ± 0.16 | 2.41 ± 0.16 | 2.43 ± 0.17 | 2.45 ± 0.17 |  |  |
| Cc1cccc(C)c1 [1,3-dimethylbenzene] + CCCCCC[n+]1ccc2ccccc2c1.N#C[S-] | 2.9 ± 0.2 | 2.93 ± 0.2 | 2.96 ± 0.2 | 2.98 ± 0.2 | 3.01 ± 0.2 |  |  |
| Cc1ccc(C)cc1 [1,4-dimethylbenzene] + CCCCCC[n+]1ccc2ccccc2c1.N#C[S-] | 2.82 ± 0.19 | 2.85 ± 0.19 | 2.88 ± 0.2 | 2.9 ± 0.2 | 2.94 ± 0.2 |  |  |
| C1COCCO1 [1,4-dioxane] + CCCCCC[n+]1ccc2ccccc2c1.N#C[S-] | 1.23 ± 0.08 | 1.25 ± 0.08 | 1.27 ± 0.08 | 1.28 ± 0.08 | 1.31 ± 0.09 |  |  |
| CCC[N+](=O)[O-] [1-nitropropane] + CCCCCC[n+]1ccc2ccccc2c1.N#C[S-] | 1.39 ± 0.09 | 1.38 ± 0.09 | 1.37 ± 0.09 | 1.37 ± 0.09 | 1.35 ± 0.09 |  |  |
| CC(C)CC(C)(C)C [2,2,4-trimethylpentane] + CCCCCC[n+]1ccc2ccccc2c1.N#C[S-] | 68.6 ± 4.7 | 57.7 ± 4 | 50.8 ± 3.5 | 44.5 ± 3 | 39.1 ± 2.7 | 96.5 ± 6.6 | 79.7 ± 5.5 |
| CCC(C)(C)C [2,2-dimethylbutane] + CCCCCC[n+]1ccc2ccccc2c1.N#C[S-] | 57.2 ± 3.9 | 45.5 ± 3.1 | 37.9 ± 2.6 | 31.2 ± 2.1 | 25.6 ± 1.8 | 91.5 ± 6.3 | 72.2 ± 4.9 |
| CCOC(C)(C)C [2-ethoxy-2-methylpropane] + CCCCCC[n+]1ccc2ccccc2c1.N#C[S-] | 17.2 ± 1.2 | 15.7 ± 1.1 | 14.7 ± 1 | 13.8 ± 0.9 | 12.8 ± 0.9 | 20.6 ± 1.4 | 18.6 ± 1.3 |
| CCC(C)(C)OC [2-methoxy-2-methylbutane] + CCCCCC[n+]1ccc2ccccc2c1.N#C[S-] | 9.01 ± 0.61 | 8.58 ± 0.59 | 8.36 ± 0.57 | 8.13 ± 0.55 | 7.85 ± 0.54 | 9.8 ± 0.67 | 9.34 ± 0.64 |
| COC(C)(C)C [2-methoxy-2-methylpropane] + CCCCCC[n+]1ccc2ccccc2c1.N#C[S-] | 7.65 ± 0.52 | 7.18 ± 0.49 | 6.99 ± 0.48 | 6.61 ± 0.45 | 6.28 ± 0.43 | 8.61 ± 0.59 | 8.13 ± 0.55 |
| CCC(C)CC [3-methylpentane] + CCCCCC[n+]1ccc2ccccc2c1.N#C[S-] | 37.8 ± 2.6 | 31.9 ± 2.2 | 27.9 ± 1.9 | 24.7 ± 1.7 | 21.5 ± 1.5 | 52.3 ± 3.6 | 43.4 ± 3 |
| CC(C)=O [acetone] + CCCCCC[n+]1ccc2ccccc2c1.N#C[S-] | 1.33 ± 0.09 | 1.31 ± 0.09 | 1.3 ± 0.08 | 1.3 ± 0.08 | 1.28 ± 0.08 |  |  |
| CC#N [acetonitrile] + CCCCCC[n+]1ccc2ccccc2c1.N#C[S-] | 1.02 ± 0.06 | 1.01 ± 0.06 | 1 ± 0.06 | 0.994 ± 0.062 | 0.982 ± 0.062 |  |  |
| c1ccccc1 [benzene] + CCCCCC[n+]1ccc2ccccc2c1.N#C[S-] | 1.47 ± 0.1 | 1.48 ± 0.1 | 1.48 ± 0.1 | 1.48 ± 0.1 | 1.49 ± 0.1 |  |  |
| C1CCCCCC1 [cycloheptane] + CCCCCC[n+]1ccc2ccccc2c1.N#C[S-] | 14.5 ± 1 | 13.4 ± 0.9 | 12.6 ± 0.9 | 11.9 ± 0.8 | 11.3 ± 0.8 | 17 ± 1.2 | 15.8 ± 1.1 |
| C1CCCCC1 [cyclohexane] + CCCCCC[n+]1ccc2ccccc2c1.N#C[S-] | 13.3 ± 0.9 | 12.4 ± 0.8 | 11.6 ± 0.8 | 10.8 ± 0.7 | 10.2 ± 0.7 | 15.4 ± 1.1 | 14.2 ± 1 |
| C1=CCCCC1 [cyclohexene] + CCCCCC[n+]1ccc2ccccc2c1.N#C[S-] | 6.6 ± 0.45 | 6.2 ± 0.42 | 5.9 ± 0.4 | 5.7 ± 0.39 | 5.5 ± 0.37 | 7.2 ± 0.49 | 6.9 ± 0.47 |
| C1CCCCCCC1 [cyclooctane] + CCCCCC[n+]1ccc2ccccc2c1.N#C[S-] | 16.5 ± 1.1 | 15.4 ± 1.1 | 14.5 ± 1 | 13.7 ± 0.9 | 12.9 ± 0.9 | 18.8 ± 1.3 | 17.5 ± 1.2 |
| C1CCCC1 [cyclopentane] + CCCCCC[n+]1ccc2ccccc2c1.N#C[S-] | 12.3 ± 0.8 | 11.5 ± 0.8 | 10.8 ± 0.7 | 10.2 ± 0.7 | 9.6 ± 0.65 | 14.7 ± 1 | 13.4 ± 0.9 |
| CCOCC [diethyl ether] + CCCCCC[n+]1ccc2ccccc2c1.N#C[S-] | 6.69 ± 0.46 | 6.34 ± 0.43 | 6.15 ± 0.42 | 5.91 ± 0.4 | 5.66 ± 0.39 | 7.48 ± 0.51 | 7.07 ± 0.48 |
| CC(C)OC(C)C [diisopropyl ether] + CCCCCC[n+]1ccc2ccccc2c1.N#C[S-] | 20.5 ± 1.4 | 17.6 ± 1.2 | 16.5 ± 1.1 | 15.7 ± 1.1 | 14.1 ± 1 | 23.7 ± 1.6 | 21.2 ± 1.4 |
| CCCOCCC [dipropyl ether] + CCCCCC[n+]1ccc2ccccc2c1.N#C[S-] | 14.2 ± 1 | 13.2 ± 0.9 | 12.6 ± 0.9 | 11.9 ± 0.8 | 11.3 ± 0.8 | 15.9 ± 1.1 | 14.9 ± 1 |

Continued, values first:

| activity coefficient (328.15 K) | activity coefficient (338.15 K) | activity coefficient (348.15 K) | activity coefficient (358.15 K) | activity coefficient (368.15 K) | activity coefficient (308.15 K) | activity coefficient (318.15 K) | Compound |
| --- | --- | --- | --- | --- | --- | --- | --- |
| 46.3 ± 3.2 | 44.2 ± 3 | 42.5 ± 2.9 | 40.5 ± 2.8 | 39.1 ± 2.7 | 50.6 ± 3.5 | 48.1 ± 3.3 | C=CCCCCCCCC [1-decene] + CCCCCC[n+]1ccc2ccccc2c1.N#C[S-] |
| 20.9 ± 1.4 | 19.5 ± 1.3 | 18.7 ± 1.3 | 17.7 ± 1.2 | 16.9 ± 1.2 | 23.5 ± 1.6 | 22 ± 1.5 | C=CCCCCC [1-heptene] + CCCCCC[n+]1ccc2ccccc2c1.N#C[S-] |
| 4.93 ± 0.34 | 5.02 ± 0.34 | 5.09 ± 0.35 | 5.16 ± 0.35 | 5.21 ± 0.36 | 4.77 ± 0.33 | 4.85 ± 0.33 | C#CCCCCC [1-heptyne] + CCCCCC[n+]1ccc2ccccc2c1.N#C[S-] |
| 3.71 ± 0.25 | 3.78 ± 0.26 | 3.83 ± 0.26 | 3.9 ± 0.27 | 3.96 ± 0.27 | 3.57 ± 0.24 | 3.64 ± 0.25 | C#CCCCC [1-hexyne] + CCCCCC[n+]1ccc2ccccc2c1.N#C[S-] |
| 6.52 ± 0.44 | 6.64 ± 0.45 | 6.71 ± 0.46 | 6.8 ± 0.46 | 6.87 ± 0.47 | 6.31 ± 0.43 | 6.43 ± 0.44 | C#CCCCCCC [1-octyne] + CCCCCC[n+]1ccc2ccccc2c1.N#C[S-] |
| 14.5 ± 1 | 12.9 ± 0.9 | 11.7 ± 0.8 | 10.7 ± 0.7 | 9.6 ± 0.7 | 18.4 ± 1.3 | 16.2 ± 1.1 | C=CCCC [1-pentene] + CCCCCC[n+]1ccc2ccccc2c1.N#C[S-] |
| 2.91 ± 0.2 | 2.97 ± 0.2 | 3.03 ± 0.21 | 3.07 ± 0.21 | 3.14 ± 0.21 | 2.79 ± 0.19 | 2.85 ± 0.19 | C#CCCC [1-pentyne] + CCCCCC[n+]1ccc2ccccc2c1.N#C[S-] |
| 2.62 ± 0.18 | 2.63 ± 0.18 | 2.64 ± 0.18 | 2.65 ± 0.18 | 2.65 ± 0.18 |  |  | CCCCC(C)=O [2-hexanone] + CCCCCC[n+]1ccc2ccccc2c1.N#C[S-] |
| 2.86 ± 0.19 | 2.88 ± 0.2 | 2.89 ± 0.2 | 2.9 ± 0.2 | 2.91 ± 0.2 |  |  | CCCC(=O)CC [3-hexanone] + CCCCCC[n+]1ccc2ccccc2c1.N#C[S-] |
| 0.846 ± 0.054 | 0.829 ± 0.053 | 0.812 ± 0.053 | 0.802 ± 0.052 | 0.788 ± 0.051 |  |  | CCCCO [butan-1-ol] + CCCCCC[n+]1ccc2ccccc2c1.N#C[S-] |
| 90.4 ± 6.2 | 84.1 ± 5.8 | 78.4 ± 5.4 | 73.4 ± 5 | 68.1 ± 4.7 | 105 ± 7 | 96.7 ± 6.6 | CCCCCCCCCC [decane] + CCCCCC[n+]1ccc2ccccc2c1.N#C[S-] |
| 0.6 ± 0.042 | 0.59 ± 0.042 | 0.581 ± 0.041 | 0.574 ± 0.041 | 0.566 ± 0.041 |  |  | CCO [ethanol] + CCCCCC[n+]1ccc2ccccc2c1.N#C[S-] |
